{
  "source": "patent US9632090B2",
  "about": "“Compositions and methods for the identification, assessment, prevention and therapy of thymic lymphoma or hamartomatous tumours” (Dana-Farber Cancer Institute, Inc., priority 2007, dated 2017)",
  "key": {"[1]": {"experiment": "DMBA carcinogen treatment, survival and tumor development", "format": "in vivo, mouse", "details": "treated at day 7", "method": "Littermate controls were analyzed for tumor-free survival. Animals were genotyped by PCR and allowed to age undisturbed in a maximum of 5 mice per cage with standard chow and water ad libitum in a standard light-day cycle. Mice were monitored three times a week and were sacrificed when moribund or if external tumors exceeded 2 cm in diameter and scored as a death in survival analysis. Those animals with cancer, as determined by histological analysis, were scored as an event in the tumor-free survival Kaplan-Meier analysis. For lung tumors, analysis of tumor load was carried out as done previously (Zhang et al., 2001).\nSeven-day old pups were treated with 5% 7,12-dimethylbenz-alpha-anthracene (DMBA) in acetone by pipetting 50 μl onto the back, and allowing it to air-dry. Mice were monitored three times a week for signs of morbidity and underwent full autopsies for tumor detection."}, "liver ECs [2]": {"tested_on": "liver ECs", "experiment": "MTT viability assay, liver endothelial cells", "format": "cell-based, mouse", "method": "(§1) 100 ng/ml FGF, or 10% FBS."}, "lung ECs": {"tested_on": "lung ECs", "experiment": "MTT viability assay, lung endothelial cells", "format": "cell-based, mouse", "method": "as §1"}, "liver ECs [3]": {"tested_on": "liver ECs", "protocol": "Livers of Mx-Cre^+ or Mx-Cre^− mice injected with pI-pC 3 weeks prior were used for the isolation of liver ECs. Liver tissues were homogenized and digested in collagenase D and lysates were run through a cell strainer. ECs were enriched by taking the interphase of a 30% Histodenz (Sigma) and RPMI suspension of cells overlaid after spinning at 1500×g for 20 min. Cells were further affinity isolated by CD31-M450 prebound magnetic beads. […] VEGF and basic FGF were obtained from the Biological Resources Branch, NCI Preclinical Repository. Cells were grown in DMEM+0.5% BSA supplemented with 100 ng/ml VEGF. 100 ng/ml FGF, or 10% FBS. EC proliferation and apoptosis were measured with the BrdU labelling and detection kit (Roche) and the In situ cell death detection kit (Roche), respectively per the manufacturer's instruction. Viability of cells after various treatments was measured by MTT (2,3-bis-(2-methoxy-4-nitro-5-sulfophenyl)-2H-tetrazolium-5-carboxanilide) assays in 96 well plates. […] Vector (pLKO) alone and pLKO-GFP were used as controls to exclude non-specific responses. Cells were selected for 96 hrs with puromycin (1 μg/ml) and used for further assays."}, "VEGF": {"tested_on": "VEGF", "sequence (P15692 207-311 limits assumed)": "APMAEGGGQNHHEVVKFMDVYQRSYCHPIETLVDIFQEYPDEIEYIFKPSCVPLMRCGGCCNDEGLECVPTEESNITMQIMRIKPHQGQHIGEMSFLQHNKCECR", "details": "intravitreal, proliferative diabetic retinopathy, short term therapy; cited from earlier work"}, "thymocytes": {"tested_on": "thymocytes", "experiment": "Thymocyte apoptosis / cell viability (propidium iodide, flow cytometry)", "format": "cell-based, mouse", "details": "1 μM, 18 hrs", "method": "For analysis of thymocytes, fresh thymus was passed through a cell strainer (Becton Dickinson) in order to produce single cell suspensions for analysis and resuspended in RPMI-1640 media containing 10% fetal calf serum. For thymocyte proliferation assays, cells were seeded in 96-well plates at 1×10^5 cells per well and subjected to the following conditions: no mitogen, PMA (1 ng/ml)+ionomycin (50 ng/ml), and 3 μg/ml anti-CD3e (eBioscience)+100 U IL-2. Cells were grown for 48 hours, pulsed with 1 μCi [3H]-thymidine (Amersham) for the last 16 hours. Incorporated [3H]-thymidine was measured using the 1450 MicroBeta Trilux Scintillation and Luminescence Counter. For analysis of apoptosis, thymocytes were plated in 12-well plates (1×10^6 cells per well) and treated with 5 Gy gamma-irradiation or 1 μM dexamethasone for 18 hours. Cell viability was determined by staining the cells with propidium iodide and performing flow cytometric analysis."}},
  "note": "Where two headings read alike, the source gives them in different places.",
  "data": [
    {"molecule": "Cc1c2ccccc2c(C)c2c1ccc1ccccc12", "note": "[DMBA, 7,12-dimethylbenz-alpha-anthracene]", "values": [
      {"measurement": "median survival", "setting": "[1]; FoxO4+/+ mice", "value": 27.3, "unit": "weeks"},
      {"measurement": "median survival", "setting": "[1]; FoxO4-/- mice", "value": 23.4, "unit": "weeks"}
    ]},
    {"molecule": "TGF-β1: cytokine known to induce EC cytostasis through Smad signalling", "values": [
      {"measurement": "survival upon exposure", "setting": "liver ECs [2]; Mx-Cre- liver ECs (reduced survival)", "value": "~60", "unit": "%"},
      {"measurement": "survival upon exposure", "setting": "liver ECs [2]; liver ECs, much less sensitive", "value": "~90", "unit": "%"},
      {"measurement": "sensitivity to stimulation", "setting": "lung ECs; lung ECs irrespective of FoxO status", "value": "insensitive"}
    ]},
    {"molecule": "VEGF", "values": [
      {"measurement": "tube length (VEGF-induced tube formation)", "setting": "liver ECs [3]; Mx-Cre+ liver ECs", "value": "4123±318", "unit": "μm"},
      {"measurement": "tube length (VEGF-induced tube formation)", "setting": "liver ECs [3]; Mx-Cre- liver ECs", "value": "3229±285", "unit": "μm"},
      {"measurement": "increase in viability (proliferation upon stimulation)", "setting": "liver ECs [2]; Mx-Cre+ liver ECs", "value": 73.3, "unit": "%"},
      {"measurement": "increase in viability (proliferation upon stimulation)", "setting": "liver ECs [2]; Mx-Cre- liver ECs", "value": 17.9, "unit": "%"},
      {"measurement": "increase in viability", "setting": "lung ECs; Mx-Cre+ lung ECs", "value": 47.2, "unit": "%"},
      {"measurement": "increase in viability", "setting": "lung ECs; Mx-Cre- lung ECs", "value": 41.7, "unit": "%"}
    ]},
    {"molecule": "bevacizumab: humanized anti-VEGF-A monoclonal antibody", "values": [
      {"measurement": "angiographic leaking", "setting": "VEGF", "value": "complete resolution of angiographic leaking"}
    ]},
    {"molecule": "C[C@@H]1C[C@H]2[C@@H]3CCC4=CC(=O)C=C[C@]4(C)[C@@]3(F)[C@@H](O)C[C@]2(C)[C@@]1(O)C(=O)CO", "note": "[dexamethasome, dexamethasone]", "values": [
      {"measurement": "survival", "setting": "thymocytes; Mx-Cre+ thymocytes", "value": "69.3±0.7", "unit": "% survival"},
      {"measurement": "survival", "setting": "thymocytes; Mx-Cre- thymocytes", "value": "50.6±2.6", "unit": "% survival"}
    ]}
  ]
}
